Data taken from ChEMBL document CHEMBL1201862, “PubChem BioAssay data set” (2004).
Counter-ions that a name gives are not always drawn. Calls of active or inactive are those of the source.

Columns and labels:
[1] = target: Caspase-7 (Homo sapiens, UniProt P55210); assay: procaspase-7 activators, dose response, dual procaspase-3/-7 activator project, biochemical, absorbance, human (AID 504330)
[2] = target: T1, Caspase-3 (Homo sapiens, UniProt P42574); assay: procaspase-3 activation potency of dual hits, dose response, counter-screen for dual procaspase-3/7 activator project, biochemical, absorbance, PC-3 D3A mutant (AID 504328)
T1 sequence (P42574 whole entry): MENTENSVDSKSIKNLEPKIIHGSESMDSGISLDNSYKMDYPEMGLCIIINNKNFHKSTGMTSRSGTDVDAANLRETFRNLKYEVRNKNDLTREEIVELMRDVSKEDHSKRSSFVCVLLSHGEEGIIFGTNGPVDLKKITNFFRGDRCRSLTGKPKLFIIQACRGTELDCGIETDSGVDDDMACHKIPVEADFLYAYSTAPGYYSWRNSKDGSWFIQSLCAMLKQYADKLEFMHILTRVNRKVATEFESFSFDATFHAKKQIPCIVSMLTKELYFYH

[3] = system: INS1; assay: beta cell apoptosis inhibitors, cytokine rescue, dose response, luminescence, retest (AID 449756); type: functional, cell-based; conditions: Rattus norvegicus;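 also: cell death triggered by IL-1 beta plus TNF-alpha plus IFN-gamma mixture; protective hits raise ATP signal compared with cytokine alone wells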
[4] = target: Troponin, cardiac muscle (Homo sapiens, UniProt P19429+P45379+P63316); assay: inhibitors of cardiac thin filament calcium sensitivity, dose response, biochemical, fluorescence, cardiac regulated thin filaments, triplicate IC50 (AID 504742); type: protein-complex assay
[5] = target: ORF 73 (Human herpesvirus 8, UniProt O40947); assay: inhibitors of C-LANA binding to LBS DNA, dose response, biochemical, fluorescence polarization, cherry-picked samples (AID 504725); parameters: species or system Human gammaherpesvirus 8;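 also: fluorescence polarization of a labeled DNA duplex reporting LANA DNA binding; potency is for inhibitors that block LANA binding to the DNA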
[6] = system: HeLa; assay: HeLa cell cytotoxicity, dose response, cytotoxicity control, 24 h, cherry-picked samples (AID 504726); type: functional, cell-based; conditions: Homo sapiens;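 also: potency for cytotoxicity as loss of luminescence signal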
[7] = target: 14-3-3 protein gamma (Homo sapiens, UniProt P61981); assay: modulators of 14-3-3 gamma client binding – dose response (AID 711); type: functional
[8] = target: T2, Insulin-degrading enzyme (Homo sapiens, UniProt P14735); assay: activators of recombinant IDE enzyme, dose response, counter-screen for IDE activator project, biochemical, fluorescence polarization (AID 588681)
T2 sequence (P14735 whole entry): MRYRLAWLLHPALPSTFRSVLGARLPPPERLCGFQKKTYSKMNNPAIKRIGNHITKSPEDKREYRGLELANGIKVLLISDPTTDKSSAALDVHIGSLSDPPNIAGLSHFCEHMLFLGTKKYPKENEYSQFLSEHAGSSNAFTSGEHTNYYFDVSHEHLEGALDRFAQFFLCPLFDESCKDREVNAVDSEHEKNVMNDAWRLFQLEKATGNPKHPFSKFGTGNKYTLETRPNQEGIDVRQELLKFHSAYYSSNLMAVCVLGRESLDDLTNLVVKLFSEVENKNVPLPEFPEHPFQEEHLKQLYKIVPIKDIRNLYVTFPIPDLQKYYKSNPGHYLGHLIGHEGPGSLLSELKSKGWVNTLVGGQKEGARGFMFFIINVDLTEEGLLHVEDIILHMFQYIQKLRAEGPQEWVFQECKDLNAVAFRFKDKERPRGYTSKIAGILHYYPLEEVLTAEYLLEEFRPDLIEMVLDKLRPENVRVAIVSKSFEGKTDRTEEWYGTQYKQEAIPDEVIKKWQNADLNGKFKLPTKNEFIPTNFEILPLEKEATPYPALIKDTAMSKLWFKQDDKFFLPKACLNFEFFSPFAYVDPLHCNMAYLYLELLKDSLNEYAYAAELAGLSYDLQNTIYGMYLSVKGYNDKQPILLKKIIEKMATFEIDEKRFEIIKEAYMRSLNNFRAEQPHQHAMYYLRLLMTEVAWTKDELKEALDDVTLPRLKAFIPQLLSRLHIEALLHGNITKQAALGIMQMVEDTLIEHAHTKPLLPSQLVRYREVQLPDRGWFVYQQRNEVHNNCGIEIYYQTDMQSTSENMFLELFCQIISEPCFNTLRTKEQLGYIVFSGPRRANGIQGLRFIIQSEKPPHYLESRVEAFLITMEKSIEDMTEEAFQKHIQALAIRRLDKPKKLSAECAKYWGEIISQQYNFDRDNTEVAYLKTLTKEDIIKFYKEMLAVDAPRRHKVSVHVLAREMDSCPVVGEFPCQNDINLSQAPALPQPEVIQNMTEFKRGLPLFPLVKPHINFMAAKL

[9] = system: HEK293; assay: HEK cell cytotoxicity by LDH release, dose response, cytotoxicity control for IDE activator project, fluorescence, HEK cells (AID 588440); type: functional, cell-based; conditions: Homo sapiens;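 also: cytotoxicity by LDH release measuring loss of membrane integrity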
[10] = target: Protein S100-A4 (Homo sapiens, UniProt P26447); assay: S100A4-myosin IIA binding inhibitor potency, dose response, biochemical, fluorescence polarization, cherry-picked hits (AID 687001); type: functional
[11] = target: Paired box protein Pax-8 (Homo sapiens, UniProt Q06710); assay: inhibitors of PAX8-driven TPO luciferase reporter, dose response, RMG-I cells, cherry-pick (AID 687027); type: functional, cell-based;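 also: luciferase reporter driven by Pax8 target thyroperoxidase promoter measured by SteadyGlo luminescence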
[12] = target: T2, Insulin-degrading enzyme; assay: activators of endogenous IDE in HEK cells, dose response, cell-based, fluorescence polarization (AID 588439); type: functional
[13] = target: Nonstructural protein 1 (Influenza A virus, UniProt Q194T2); type: functional, Influenza A virus (A/California/07/2009(H1N1))
[14] = target: Aryl hydrocarbon receptor (Homo sapiens, UniProt P35869); conditions: Potency;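 also: confirmatory quantitative high-throughput screen measuring activation of the AhR signaling pathway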
[15] = system: HEK293; assay: optical interference in Abeta FP readout, dose response, artefact control for IDE activator project, biochemical, fluorescence polarization (AID 588442); type: functional, cell-based; conditions: Homo sapiens
[16] = target: T3, fMet-Leu-Phe receptor (Homo sapiens, UniProt P21462); assay: FPR ligands, dose response (AID 519); type: functional
T3 sequence (P21462 whole entry): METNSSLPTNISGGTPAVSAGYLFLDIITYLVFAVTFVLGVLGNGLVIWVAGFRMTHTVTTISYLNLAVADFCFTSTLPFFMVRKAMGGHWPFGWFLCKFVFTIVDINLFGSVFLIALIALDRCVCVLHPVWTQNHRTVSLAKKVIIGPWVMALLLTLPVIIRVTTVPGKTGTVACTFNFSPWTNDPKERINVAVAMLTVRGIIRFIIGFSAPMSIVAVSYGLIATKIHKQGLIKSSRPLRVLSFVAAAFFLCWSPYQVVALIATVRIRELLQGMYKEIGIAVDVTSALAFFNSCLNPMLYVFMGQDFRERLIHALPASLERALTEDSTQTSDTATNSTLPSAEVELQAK

[17] = target: T4, Alkaline phosphatase, tissue-nonspecific isozyme (Homo sapiens, UniProt P05186); assay: TNAP enzyme activators, dose response, selectivity assay for human IAP activator project, biochemical, TNAP isozyme, human IAP uHTS hits (AID 488886); type: functional;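 also: potency of compounds raising TNAP activity as a selectivity check on IAP activators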
T4 sequence (P05186 whole entry): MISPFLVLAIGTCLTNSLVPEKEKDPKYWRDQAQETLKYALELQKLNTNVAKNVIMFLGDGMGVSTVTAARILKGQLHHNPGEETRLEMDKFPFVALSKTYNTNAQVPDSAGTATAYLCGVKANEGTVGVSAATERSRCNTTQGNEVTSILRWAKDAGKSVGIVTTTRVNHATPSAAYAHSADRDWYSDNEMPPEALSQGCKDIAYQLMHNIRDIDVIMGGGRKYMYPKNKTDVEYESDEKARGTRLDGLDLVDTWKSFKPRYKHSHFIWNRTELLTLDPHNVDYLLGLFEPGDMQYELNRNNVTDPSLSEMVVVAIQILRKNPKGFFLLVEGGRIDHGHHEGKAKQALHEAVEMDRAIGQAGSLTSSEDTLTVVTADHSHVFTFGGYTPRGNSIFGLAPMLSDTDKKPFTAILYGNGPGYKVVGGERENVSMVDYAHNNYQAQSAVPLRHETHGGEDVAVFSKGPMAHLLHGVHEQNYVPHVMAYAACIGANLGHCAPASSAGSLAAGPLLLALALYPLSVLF

[18] = target: T5, Intestinal-type alkaline phosphatase (Homo sapiens, UniProt P09923); assay: human IAP activators, dose response, biochemical, luminescent, uHTS hits, set 2 (AID 488817); type: functional;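 also: potency of activators that raise enzyme activity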
[19] = target: Intestinal-type alkaline phosphatase (Mus musculus, UniProt P24822); assay: PubChem AID 488875; type: functional
[20] = target: NACHT, LRR and PYD domains-containing protein 3 (Homo sapiens, UniProt Q96P20); assay: NALP3 inhibitors in yeast, dose response, luminescent (AID 488799); type: functional
[21] = system: Streptococcus sp. 'group A'; assay: growth inhibition of control SK(-) GAS strain, dose response, counter-screen for streptokinase expression inhibitor project, luminescence, kanamycin, BacTiterGlo, confirmation (AID 1900); type: functional, organism-based
[22] = target: T5, Intestinal-type alkaline phosphatase; assay: human intestinal alkaline phosphatase activators, dose response, biochemical, luminescence, uHTS hits (AID 463120); type: functional
[23] = system: Streptococcus; assay: Group A Streptococcus viability loss, dose response, counter-screen for streptokinase expression inhibitor project, luminescence, BacTiterGlo (AID 1915); type: functional, organism-based;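 also: potency for reduction of bacterial viability or growth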

COc1ccc2c(c1OC)C(=O)OC2CC(=O)c1ccc(N(C)C)cc1 (centres undefined)
EC50 [1]: > 85.3 µM (inactive)
EC50 [2]: > 85.3 µM (inactive)

COc1cccc(/C=N/Nc2nc3ccccc3n3cnnc23)c1O
AC50 [3]: 1.84 µM (active)
IC50 [4]: 7.6 µM (active)

COc1cccc2c1C(=O)c1c(O)c3c(c(O)c1C2=O)C[C@@](O)(C(C)=O)C[C@@H]3O[C@H]1C[C@H](N)[C@H](O)[C@H](C)O1 [DAUNORUBICIN HYDROCHLORIDE]
AC50 [5]: 2.36 µM (active)
AC50 [6]: 1.73 µM (active)
IC50 [7]: < 0.781 µM (active)
EC50 [8]: > 54.7 µM (inactive)
IC50 [9]: 17.7 µM (inactive)
AC50 [10]: 0.235 µM (active)
AC50 [11]: 1.55 µM (active)
EC50 [12]: > 54.7 µM (inactive)
IC50 [13]: 32.7 µM (active)
AC50 [14]: 12.6 µM (inconclusive)
EC50 [15]: > 54.7 µM (inactive)
Ki [16]: > 66.7 µM (inactive)

O=C(NC(=S)NNC(=O)c1ccccc1O)c1ccc(F)cc1
EC50 [17]: 12.4 µM (active)
EC50 [18]: 12.2 µM (active)
EC50 [19]: > 100 µM (inactive)
IC50 [13]: 12.2 µM (active)
IC50 [20]: 7.94 µM (active)
EC50 [21]: 3.21 µM (active)
EC50 [22]: 8.25 µM (active)
EC50 [23]: 7.74 µM (active)
